For one data set, the system named is δ-opioid receptor. As to the kind of experiment: cAMP accumulation in SH-SY5Y cells, SNC80. The data set is classed as cell-based. Here is the method:
Accumulated cAMP was measured by radioimmunoassay in a 10-15 μl aliquot of the supernatant from each sample following the manufacturer's instructions (cAMP radioimmunoassay kit from GE Healthcare, Piscataway, N.J.). Data are from four separate experiments, each carried out in duplicates and calculated as percent inhibition.
Cells were plated into 24-well plates to reach ˜90% confluency on the day of assay and washed once with fresh serum-free medium. […] Accumulated cAMP was measured by radioimmunoassay in a 10-15 μl aliquot of the supernatant from each sample following the manufacturer's instructions (cAMP radioimmunoassay kit from GE Healthcare, Piscataway, N.J.). Data are from four separate experiments, each carried out in duplicates and calculated as percent inhibition.

In another data set the test system is HEK-293 cells. As to the kind of experiment: WST-1 cell viability. The data set is classed as cell-based. Particulars: up to 100 μM, overnight. Here is the method: WST-1 Cell Viability Studies:
HEK-293 cells were plated to a density of 30,000/well in 96-well plates and grown for 48 hours in Dulbecco's Modified Eagle Medium (DMEM) containing 10% fetal bovine serum and Penicillin (100 units/ml)-Streptomycin (100 μg/ml) under 5% CO2 at 37° C. Compound treatment was performed overnight in DMEM containing 0.1% bovine serum albumin under 5% CO2 at 37° C. After compound incubation ten microliters of the WST-1 reagent (Hoffmann-La Roche, Switzerland) was added to every well and the cells were incubated for 1 hour under 5% CO2 at 37° C. Absorbance was measured at 450 nm using a Victor II plate reader (Perkin-Elmer, Picastaway, N.J.).
On the technique in general: Formazan colour is commonly taken as a measure of viable cells.

In the next data set the target is RGS8 (Homo sapiens (Human), UniProt P57771). As to the kind of experiment: FCPIA: Gαo binding to RGS8. The note with it: for IC50: read-out: RGS8 IC50. From the text: (§1) FCPIA Dose Response and Reversibility Experiments:
The next data set deals with 160C RGS8 (C107S) (Homo sapiens (Human), UniProt P57771, C107S). Put plainly: FCPIA: RGS8 mutant 160C. The data set is classed as binding. Here is the method: (§2) With the exception of RGS8 mutants, all RGS and G proteins were prepared as previously described (Roman, D., et al., Mol Pharmacol). […] Mutagenesis was performed using the QuickChange Multi-site Directed Mutagenesis kit (Agilent, La Jolla Calif.).
Chain of 160C RGS8 (C107S) (P57771 other isoform, or with tags, fused parts or gaps C107S): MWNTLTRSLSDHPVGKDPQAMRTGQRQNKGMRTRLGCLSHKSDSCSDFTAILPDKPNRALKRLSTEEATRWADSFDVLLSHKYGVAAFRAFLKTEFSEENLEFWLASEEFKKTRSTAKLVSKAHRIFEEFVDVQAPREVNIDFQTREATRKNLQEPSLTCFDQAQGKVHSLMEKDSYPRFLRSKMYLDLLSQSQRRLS
(§3) This protein only contains two cysteines in the RGS homology domain, making it a simpler model system to study than other RGS proteins. Each cysteine from the RGS8 RGS homology (RH) domain was individually mutated to serine and the activity of the compound was analyzed via FCPIA (FIG. 6).

A further data set in a line: Solubility experiments. Format: physicochemical. The note with it: water; aqueous. Here is the method:
Compounds were diluted to 100 mM in DMSO and the further diluted to 500 μM in H2O, vortexed and centrifuged for 10 minutes at 13,000×g at ambient temperature.

The target in a further data set is 107C RGS8 (C160S) (Homo sapiens (Human), UniProt P57771, C160S). As to the kind of experiment: FCPIA: RGS8 mutant 107C. Format: binding. How it is done: as §2, §3
Chain of 107C RGS8 (C160S) (P57771 other isoform, or with tags, fused parts or gaps C160S): as the sequence (P57771 other isoform, or with tags, fused parts or gaps C107S) above, with S107C, C160S counted along it
In another data set the test system is M3 muscarinic receptor. As to the kind of experiment: Carbachol-induced Ca2+ response, M3 cells without RGS4 dependence. Format: cell-based. The note with it: 10 μM (FIG. 20) or as stated. Here is the method:
Calcium Mobilization Experiments:
(§4) A stable cell line was developed based upon the HEK-293 Flp-In TREx cell line (Invitrogen, Carlsbad, Calif.) that stably express the muscarinic M3 receptor and have human RGS4 expression under doxycycline control. Cells were maintained in DMEM supplemented with 10% fetal bovine serum and Penicillin (100 units/ml)-Streptomycin (100 μg/ml) under 5% CO2 at 37° C. For experiments, cells were split into 96-well black, clear bottom, poly-D-lysine coated microtiter plates (Nunc, Cat. #152037) at a density of 20,000 cells/well in DMEM containing 10% fetal bovine serum and Penicillin (100 units/ml), Streptomycin (100 μg/ml). RGS4 expression was induced by supplementing the medium with 1 μg/mL doxycycline for 24-48 hours before experimentation. Cells were loaded with Fluo-4 No Wash dye in buffer for 30 minutes at 37° C. Compounds and/or carbachol were added to the wells and the fluorescence intensity was measured using a FlexStation (Molecular Devices, Sunnyvale, Calif.) plate reader. Data analysis was performed by calculating the area under the curve or maximal fluorescence intensity from a 120 second kinetic measurement.
as §4, with “Calcium signaling transients: A” for “A”, “units/ml)-Streptomycin” for “units/ml), Streptomycin”

Data set [1] addresses RGS4. Put plainly: FCPIA: Gαo binding to RGS4. Particulars: Table 6, FCPIA; read-out: RGS4 IC50.
From the text: as §1

The next data set concerns the target papain (Carica papaya (Papaya), UniProt P00784). Put plainly: biochemical. The data set is classed as biochemical. The text has this:
Papain (Sigma-Aldrich, St. Louis, Mo.) activity was monitored by the increase in fluorescence caused by the liberation of fluorescein from autoquenched fluorescein-conjugated casein (AnaSpec, San Jose, Calif.).

The nature of data set [2]: Heart rate and blood pressure in freely-moving rats. The data set is classed as in vivo. Particulars: 0.1 mg/kg intraperitoneal vs saline. The text has this:
The muscarinic agonist carbachol can induce a transient bradycardic effect by activating M2 receptors in the SAN.

In data set [3] the target is RGS4 (Homo sapiens (Human), UniProt P49798). Put plainly: FCPIA: Gαo binding to RGS4. Particulars: FCPIA.
Chain of RGS4 (Homo sapiens (Human), UniProt P49798) (P49798 whole entry, looked up): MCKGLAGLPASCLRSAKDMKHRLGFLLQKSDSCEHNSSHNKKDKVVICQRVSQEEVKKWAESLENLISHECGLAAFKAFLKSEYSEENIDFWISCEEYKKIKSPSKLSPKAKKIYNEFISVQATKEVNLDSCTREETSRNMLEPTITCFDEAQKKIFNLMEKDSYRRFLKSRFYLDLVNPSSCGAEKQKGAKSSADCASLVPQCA
From the text: as §1

Structures are written as SMILES. ≈ marks a conversion by molar mass, not a printed value. Where two headings read alike, the source gives them in different places.

Chain of RGS8 (P57771 other isoform, or with tags, fused parts or gaps): as the sequence (P57771 other isoform, or with tags, fused parts or gaps C107S) above, with S107C counted along it
Chain of papain (P00784 134-345): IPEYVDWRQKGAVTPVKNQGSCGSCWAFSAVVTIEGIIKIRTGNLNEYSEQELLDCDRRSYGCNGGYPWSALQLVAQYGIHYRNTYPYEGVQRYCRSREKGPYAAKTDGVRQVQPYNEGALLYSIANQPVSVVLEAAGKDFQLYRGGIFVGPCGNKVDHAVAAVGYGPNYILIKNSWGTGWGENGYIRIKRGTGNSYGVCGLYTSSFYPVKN

As to `Cc1ccc(-n2sc(=O)n(Cc3ccc(F)cc3)c2=O)cc1` [CCG-50014, 4-[(4-fluorophenyl)methyl]-2-(4-methylphenyl)-1,2,4-thiadiazolidine-3,5-dione], the “inhibition of forskolin-stimulated adenylate cyclase by SNC-80 with compound” value with δ-opioid receptor (100 nM SNC-80 + 100 μM CCG-50014) is 44%. For the same compound, the “effect on forskolin-stimulation of cAMP production” value in the data set on δ-opioid receptor (100 μM) is on record as “no effect”. The “cell viability (WST-1)” value in the data set on HEK-293 cells was “did not reduce cell viability below control levels”. For the same compound, the IC50 (usually the concentration needed to halve the response being measured) on RGS8 (Table 2, mean of two independent FCPIA experiments) was 1.1 µM; against 160C RGS8 (C107S) (FIG. 6), 0.71 µM; against 107C RGS8 (C160S) (FIG. 6) it was 46.5 µM. On RGS8 (read-out: experimentally derived Ki value), the Ki (commonly the dissociation constant of the complex between target and ligand, obtained from inhibition or displacement) amounted to 0.3 µM. Further, the inhibition (in general, the relative decrease from the control value, in per cent) at 20 µM on 160C RGS8 (C107S) (20 μM, all time points, read-out: irreversible inhibition of 160C RGS8) was about 50%; at 107C RGS8 (C160S) (20 μM, all time points, read-out: irreversible inhibition of 107C RGS8) it was about 20%. In the data set “Solubility experiments”, the solubility (usually the concentration that dissolves in the medium under given conditions) is about 100 µM (≈ 31.6 µg/mL).
As for `CCn1sc(=O)n(CCOC)c1=O` [CCG-203920, 2-ethyl-4-(2-methoxyethyl)-1,2,4-thiadiazolidine-3,5-dione], the “effect on carbachol-induced Ca2+ response (RGS-independent)” value in the data set with M3 muscarinic receptor is given as “no effect”. For the same compound, the IC50 was 36.1 µM on RGS8 (Table 6, FCPIA) and 0.0543 µM on RGS4 [1].
Regarding `CCN1C(=O)C=CC1=O` [N-ethyl maleimide, reference compound], on papain, the “inhibition of papain by general cysteine alkylators” value is given as “no effect”. In addition, the “effect on RGS8” value at RGS8 (FCPIA) is recorded as “no effect”.
Turning to `C[N+](C)(C)CCOC(N)=O` [carbachol, reference compound], the “heart rate after carbachol” value in data set [2] is on record as “significant decrease in heart rate”.
For the compound `NC(=O)CI` [iodoacetamide, reference compound], on papain, the “inhibition of papain by general cysteine alkylators” value was “dose-dependent”. Besides, the “effect on Gα0 binding to the RGS proteins tested” value at RGS4 [3] was “no effect”.

Source of the values: patent US8865750B2, “Small molecule inhibitors of RGS proteins” (The Regents of The University of Michigan, priority 2011, dated 2014).
